Biological target: rat MCH-1 (Rattus norvegicus, UniProt P97639)
Assay: Radioligand binding assay at cloned rat MCH1 receptor ([3H] Compound A)
Set-up: host or cells: Peak rapid 293 (Peakr293) cells, transient calcium phosphate transfection, membranes
Details: cloned rat MCH1 receptor; 0.08 nM [3H] Compound A; Peakr293 cell membranes; read-out: Ki (nM) rMCH1

Sequence of rat MCH-1 (P97639 whole entry): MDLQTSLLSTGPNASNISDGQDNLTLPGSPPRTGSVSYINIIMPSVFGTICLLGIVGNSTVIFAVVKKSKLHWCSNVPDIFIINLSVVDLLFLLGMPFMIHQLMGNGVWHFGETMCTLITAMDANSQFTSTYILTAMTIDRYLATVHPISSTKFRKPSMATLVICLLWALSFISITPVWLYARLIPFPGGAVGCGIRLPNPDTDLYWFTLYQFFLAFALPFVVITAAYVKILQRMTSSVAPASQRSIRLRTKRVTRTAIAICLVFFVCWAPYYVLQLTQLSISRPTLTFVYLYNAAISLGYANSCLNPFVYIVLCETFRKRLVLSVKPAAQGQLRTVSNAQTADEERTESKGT

| Structure (SMILES) | Ki |
| --- | --- |
| CC(C)C(=O)Nc1cccc(C2CCN(CC[C@H](NS(=O)(=O)c3ccc(F)c(F)c3)c3ccccc3)CC2)c1 [Example 592] | 186 nM |
| CC(C)C(=O)Nc1cccc(C2CCN(CC[C@H](NC(=O)c3sccc3Cl)c3ccccc3)CC2)c1 [Example 593] | 7.6 nM |
| CC(C)C(=O)Nc1cccc(C2CCN(CC[C@H](NS(=O)(=O)c3cccc4c(N(C)C)cccc34)c3ccccc3)CC2)c1 [Example 594] | 67 nM |
| CC(C)C(=O)Nc1cccc(C2CCN(CC[C@H](NS(=O)(=O)c3cc(Cl)cc(Cl)c3O)c3ccccc3)CC2)c1 [Example 596] | 597 nM |
| CC(C)C(=O)Nc1cccc(C2CCN(CC[C@H](NS(C)(=O)=O)c3ccccc3)CC2)c1 [Example 597] | 223 nM |
| CC(C)C(=O)Nc1cccc(C2CCN(CC[C@H](NS(=O)(=O)c3ccc(F)cc3)c3ccccc3)CC2)c1 [Example 598] | 25.3 nM |
| CC(C)C(=O)Nc1cccc(C2CCN(CC[C@H](NS(=O)(=O)c3ccc(C(C)(C)C)cc3)c3ccccc3)CC2)c1 [Example 599] | 50 nM |
| COC(=O)c1sccc1S(=O)(=O)NCCCN1CCC(c2cccc(NC(=O)C(C)C)c2)CC1 [Example 603, METHYL 3-{[(3-{4-[3-(ISOBUTYRYLAMINO)PHENYL]-1-PIPERIDINYL}PROPYL)AMINO]SULFONYL}-2-THIOPHENECARBOXYLATE] | 287 nM |
| CC(C)C(=O)Nc1cccc(C2CCN(CC[C@H](NC(=O)Nc3ccc(Oc4ccccc4)cc3)c3ccccc3)CC2)c1 [Example 604] | 36.8 nM |
| CC(C)C(=O)Nc1cccc(C2CCN(CC[C@H](NC(=O)Nc3ccccc3)c3ccccc3)CC2)c1 [Example 605] | 94.5 nM |
| CC(C)C(=O)Nc1cccc(C2CCN(CC[C@H](NC(=S)NC(C)(C)C)c3ccccc3)CC2)c1 [Example 606] | 40.4 nM |
| CC(C)C(=O)Nc1cccc(C2CCN(CC[C@H](NC(=O)Nc3ccccc3F)c3ccccc3)CC2)c1 [Example 607] | 142 nM |
| CC(C)C(=O)Nc1cccc(C2CCN(CCCNC(=O)Nc3ccc(F)cc3)CC2)c1 [Example 613] | 34.9 nM |
| CC(C)C(=O)Nc1cccc(C2CCN(CCCNC(=O)Nc3ccc(Cl)c(Cl)c3)CC2)c1 [Example 614] | 84.8 nM |
| CC(C)C(=O)Nc1cccc(C2CCN(CCCNC(=O)Nc3ccccc3)CC2)c1 [Example 618] | 400 nM |
| CC(C)C(=O)Nc1cccc(C2CCN(CCCNC(=O)Nc3ccc(Oc4ccccc4)cc3)CC2)c1 [Example 621] | 205 nM |
| CC(=O)Nc1cccc(C2CCN(CCCNC(=O)C3=C(C)NC(=O)CC3c3ccc(F)cc3F)CC2)c1 (centres unmarked) [Example 622] | 162 nM |
| CC(=O)Nc1cccc(C2CCN(CCCNC(=O)C3=C(C)NC(=O)CC3c3ccc(F)c(F)c3)CC2)c1 (centres unmarked) [Example 623] | 23.1 nM |
| CC(C)C(=O)Nc1cccc(C2CCN(CCCCCCNC(=O)C(c3ccccc3)c3ccccc3)CC2)c1 [Example 625] | 29.5 nM |
| CC(C)C(=O)Nc1cccc(C2CCN(CCCCCCNC(=O)c3ccc(Oc4cc(Cl)cc(Cl)c4)o3)CC2)c1 [Example 626] | 20.9 nM |
| CC(C)C(=O)Nc1cccc(C2CCN(CCCCCCNC(=O)c3cccnc3Oc3ccccc3)CC2)c1 [Example 627] | 109 nM |
| CC(C)C(=O)Nc1cccc(C2CCN(CCCCCCNC(=O)c3scc(S(=O)(=O)C(C)C)c3Cl)CC2)c1 [Example 630] | 202 nM |
| CC(C)C(=O)Nc1cccc(C2CCN(CCCCCCNC(=O)Nc3ccccc3)CC2)c1 [Example 631] | 259 nM |
| CCCc1c(C(=O)NCCCCCCN2CCC(c3cccc(NC(=O)C(C)C)c3)CC2)cnn1-c1ccccc1 [Example 633] | 108 nM |
| CC(C)C(=O)Nc1cccc(C2CCN(CCCCCCNC(=O)Nc3ccc(-c4ccccc4)cc3)CC2)c1 [Example 635] | 73.6 nM |
| CC(C)C(=O)Nc1cccc(C2CCN(CCCCCCNC(=O)Nc3ccc4ccccc4c3)CC2)c1 [Example 636] | 40.8 nM |
| COc1ccc(S(=O)(=O)NCCCN2CCC(c3cccc(NC(=O)C(C)C)c3)CC2)cc1OC [Example 637] | 106 nM |

The remaining molecules from weak to strong by Ki, led by results:

| Ki | Structure (SMILES) |
| --- | --- |
| 609 nM | CCOc1ccc(NC(=O)NCCCN2CCC(c3cccc(NC(=O)C(C)C)c3)CC2)cc1 [Example 617] |
| 530 nM | CC(C)C(=O)Nc1cccc(C2CCN(CC[C@H](NC(=O)Nc3ccccc3[N+](=O)[O-])c3ccccc3)CC2)c1 [Example 610] |
| 406 nM | CC(C)C(=O)Nc1cccc(C2CCN(CCCNC(=O)NCc3ccccc3)CC2)c1 [Example 616] |
| 284 nM | CCC(=O)Nc1cccc(C2CCN(CCCCCCSc3ccccc3)CC2)c1 [Example 588] |
| 223 nM | CC(C)C(=O)Nc1cccc(C2CCN(CCCNC(=S)NC(C)(C)C)CC2)c1 [Example 620] |
| 210 nM | Cc1ccccc1NC(=S)NCCCN1CCC(c2cccc(NC(=O)C(C)C)c2)CC1 [Example 615] |
| 178 nM | CSc1ccccc1NC(=O)NCCCN1CCC(c2cccc(NC(=O)C(C)C)c2)CC1 [Example 619] |
| 161 nM | CC(C)C(=O)Nc1cccc(C2CCN(CCCCCCNC(=O)c3ccc4ccccc4c3)CC2)c1 [Example 628] |
| 157 nM | CC(C)C(=O)Nc1cccc(C2CCN(CCC[S+]([O-])c3ccc(F)cc3)CC2)c1 (centres unmarked) [Example 590] |
| 144 nM | CCCS(=O)(=O)N[C@@H](CCN1CCC(c2cccc(NC(=O)C(C)C)c2)CC1)c1ccccc1 [Example 601] |
| 138 nM | CC(C)C(=O)Nc1cccc(C2CCN(CCC[S+]([O-])c3ccccc3Br)CC2)c1 (centres unmarked) [Example 591] |
| 121 nM | CSc1ccccc1NC(=O)N[C@@H](CCN1CCC(c2cccc(NC(=O)C(C)C)c2)CC1)c1ccccc1 [Example 612] |
| 116 nM | CC(C)C(=O)Nc1cccc(C2CCN(CCCCCCNC(=O)Nc3cccc4ccccc34)CC2)c1 [Example 634] |
| 76.6 nM | CC(C)C(=O)Nc1cccc(C2CCN(CCCCCCNC(=O)Nc3ccc(Cl)cc3Cl)CC2)c1 [Example 632] |
| 66.6 nM | CCC(=O)Nc1cccc(C2CCN(CCCCCSc3ccccc3)CC2)c1 [Example 589] |
| 65.1 nM | CC(C)C(=O)Nc1cccc(C2CCN(CC[C@H](NC(=O)Nc3ccc(Cl)c(Cl)c3)c3ccccc3)CC2)c1 [Example 611] |
| 47.8 nM | CC(C)C(=O)Nc1cccc(C2CCN(CCCCCCNC(=O)c3cnn(-c4ccc([N+](=O)[O-])cc4)c3C(F)(F)F)CC2)c1 [Example 624] |
| 46.9 nM | O=C(Nc1cccc(C2CCN(CCCCCSc3ccccc3)CC2)c1)C1CC1 [Example 587] |
| 44.6 nM | Cc1noc(C)c1S(=O)(=O)N[C@@H](CCN1CCC(c2cccc(NC(=O)C(C)C)c2)CC1)c1ccccc1 [Example 602] |
| 42.9 nM | CC(C)C(=O)Nc1cccc(C2CCN(CCCCCSc3ccccc3)CC2)c1 [Example 586] |
| 42.9 nM | CC(C)C(=O)Nc1cccc(C2CCN(CCCCCCNC(=O)c3cc(C(C)(C)C)nn3Cc3ccccc3)CC2)c1 [Example 629] |
| 41.3 nM | CC(C)C(=O)Nc1cccc(C2CCN(CC[C@H](NS(=O)(=O)c3cc(Cl)ccc3Cl)c3ccccc3)CC2)c1 [Example 600] |
| 37.2 nM | CC(C)C(=O)Nc1cccc(C2CCN(CCCCSc3ccccc3)CC2)c1 [Example 585] |
| 36.3 nM | Cc1ccc(S(=O)(=O)N[C@@H](CCN2CCC(c3cccc(NC(=O)C(C)C)c3)CC2)c2ccccc2)cc1 [Example 595] |
| 35.4 nM | CC(C)C(=O)Nc1cccc(C2CCN(CC[C@H](NC(=O)NCc3ccccc3)c3ccccc3)CC2)c1 [Example 609] |
| 34.9 nM | Cc1ccccc1NC(=S)N[C@@H](CCN1CCC(c2cccc(NC(=O)C(C)C)c2)CC1)c1ccccc1 [Example 608] |

Reference: patent US6727264B1 (Synaptic Pharmaceutical Corporation, priority 2001, dated 2004)
